The subject of experiment [1] is A549 cells. The experiment is described as follows: Proliferation Assay (A549 viability, Cell Titer Fluor, 72 hours). The experiment is classed as cell-based. The note with it: Homo sapiens. In outline: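 Cell Titer Fluor fluorescence after 72 h compound treatment (0.5% DMSO, 37 °C, 5% CO2) of A549 cells plated 24 h earlier at 1000/well. Four-parameter logistic fitting gave IC50.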

Experiment [2] has as its target purified recombinant human GAC (GLS1) (Homo sapiens (Human), UniProt O94925). Nature of the experiment: GLS1 Enzymatic Activity Assay (dual-coupled enzymatic assay, resorufin/Amplex UltraRed readout).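 Note: glutamate from GAC coupled via glutamate oxidase and peroxidase to resorufin, read as fluorescence (ex 530, em 590 nm) kinetically or at 20 min, four-parameter logistic IC50 fit.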 The experiment is classed as biochemical.

Some results are limits rather than exact numbers.

Sequence of purified recombinant human GAC (GLS1) (O94925 other isoform, or with tags, fused parts or gaps): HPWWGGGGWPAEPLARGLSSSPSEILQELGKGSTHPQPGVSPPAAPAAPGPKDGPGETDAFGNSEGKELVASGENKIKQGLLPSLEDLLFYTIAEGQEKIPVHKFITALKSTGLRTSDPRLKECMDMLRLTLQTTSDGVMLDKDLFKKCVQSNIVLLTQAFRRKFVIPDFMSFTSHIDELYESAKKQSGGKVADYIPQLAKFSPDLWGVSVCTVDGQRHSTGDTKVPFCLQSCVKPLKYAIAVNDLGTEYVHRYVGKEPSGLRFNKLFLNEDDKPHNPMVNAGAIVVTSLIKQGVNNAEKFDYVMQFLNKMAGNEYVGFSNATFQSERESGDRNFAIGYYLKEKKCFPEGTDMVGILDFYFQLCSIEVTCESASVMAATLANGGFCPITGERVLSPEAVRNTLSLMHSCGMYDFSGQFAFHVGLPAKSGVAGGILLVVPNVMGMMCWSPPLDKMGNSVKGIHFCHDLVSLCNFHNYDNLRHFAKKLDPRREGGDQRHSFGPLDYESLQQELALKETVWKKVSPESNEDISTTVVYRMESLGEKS

On to `O=C(CN1CCC(F)(F)C1)Nc1cn(CCCCn2cc(C(=O)NCc3cc(Cl)ccc3F)nn2)nn1` [Example 355, N-[(5-chloro-2-fluorophenyl)methyl]-1-(4-{4-[2-(3,3-difluoropyrrolidin-1-yl)acetamido]-1H-1,2,3-triazol-1-yl}butyl)-1H-1,2,3-triazole-4-carboxamide], for which, in experiment [1] (A549, 72 h), the EC50 – broadly, the concentration at which the effect is half-maximal – was 100 to 500 nM. Besides, in experiment [2], the IC50 (usually the concentration at which inhibition is half-maximal) lay within 100 to 500 nM.
Regarding `O=C(CN1CCC(F)(F)C1)Nc1cn(CCCCn2cc(C(=O)NCc3cc(OC(F)(F)F)ccc3F)nn2)nn1` [Example 356, 1-(4-{4-[2-(3,3-difluoropyrrolidin-1-yl)acetamido]-1H-1,2,3-triazol-1-yl}butyl)-N-{[2-fluoro-5-(trifluoromethoxy)phenyl]methyl}-1H-1,2,3-triazole-4-carboxamide], the EC50 in experiment [1] (A549, 72 h) is less than 100 nM. Moreover, in experiment [2], the IC50 is less than 100 nM.
In the case of `O=C(CN1CCC(F)(F)CC1)Nc1cn(CCCCn2cc(C(=O)NCc3cc(Cl)ccc3F)nn2)nn1` [Example 359, N-[(5-chloro-2-fluorophenyl)methyl]-1-(4-{4-[2-(4,4-difluoropiperidin-1-yl)acetamido]-1H-1,2,3-triazol-1-yl}butyl)-1H-1,2,3-triazole-4-carboxamide], the concentration for a half-maximal effect (EC50) in experiment [1] (A549, 72 h) was 100 to 500 nM. In addition, in experiment [2], the concentration for half-maximal inhibition (IC50) lay in the range of 100 to 500 nM.
In experiment [1] (A549, 72 h), `O=C(CN1CCC(F)(F)CC1)Nc1cn(CCCCn2cc(C(=O)NCc3cc(OC(F)(F)F)ccc3F)nn2)nn1` [Example 360, 1-(4-{4-[2-(4,4-difluoropiperidin-1-yl)acetamido]-1H-1,2,3-triazol-1-yl}butyl)-N-{[2-fluoro-5-(trifluoromethoxy)phenyl]methyl}-1H-1,2,3-triazole-4-carboxamide] yielded an EC50 of less than 100 nM. Besides, in experiment [2], the IC50 is less than 100 nM.
As to `O=C(Cc1ccccn1)Nc1cn(CC(F)CCn2cc(C(=O)NCc3cc(OC(F)(F)F)ccc3F)nn2)nn1` (stereo not shown) [Example 363, 1-(3-fluoro-4-{4-[2-(pyridin-2-yl)acetamido]-1H-1,2,3-triazol-1-yl}butyl)-N-{[2-fluoro-5-(trifluoromethoxy)phenyl]methyl}-1H-1,2,3-triazole-4-carboxamide], the EC50 in experiment [1] (A549, 72 h) was less than 100 nM. Further, the IC50 in experiment [2] is less than 100 nM.
Regarding `Cc1ccc(CNC(=O)c2cn(CCC(F)Cn3cc(NC(=O)Cc4ccccn4)nn3)nn2)cn1` (stereo not shown) [Example 364, 1-(3-fluoro-4-{4-[2-(pyridin-2-yl)acetamido]-1H-1,2,3-triazol-1-yl}butyl)-N-[(6-methylpyridin-3-yl)methyl]-1H-1,2,3-triazole-4-carboxamide], in experiment [1] (A549, 72 h), the EC50 fell in the range of 500 to 5000 nM. For the same compound, the IC50 in experiment [2] lay in the range of 100 to 500 nM.
The compound `O=C(Cc1ccc(Cl)cc1F)Nc1cn(CCCCn2cc(C(=O)NCc3ccccn3)nn2)nn1` [Example 366, 1-(4-{4-[2-(4-chloro-2-fluorophenyl)acetamido]-1H-1,2,3-triazol-1-yl}butyl)-N-(pyridin-2-ylmethyl)-1H-1,2,3-triazole-4-carboxamide] displayed an EC50 in experiment [1] (A549, 72 h) of 500 to 5000 nM. Further, the IC50 in experiment [2] was 100 to 500 nM.
`O=C(Cc1ccc(OC(F)(F)F)cc1F)Nc1cn(CCCCn2cc(C(=O)NCc3ccccn3)nn2)nn1` [Example 367, 1-[4-(4-{2-[2-fluoro-4-(trifluoromethoxy)phenyl]acetamido}-1H-1,2,3-triazol-1-yl)butyl]-N-(pyridin-2-ylmethyl)-1H-1,2,3-triazole-4-carboxamide] had an EC50 in experiment [1] (A549, 72 h) of 100 to 500 nM. Further, the IC50 in experiment [2] is less than 100 nM.
With `Cc1ccc(CNC(=O)c2cn(CC(F)CCn3cc(C(=O)NCc4cc(OC(F)(F)F)ccc4F)nn3)nn2)cn1` (stereo not shown) [Example 368, 1-{2-fluoro-4-[4-({[2-fluoro-5-(trifluoromethoxy)phenyl]methyl}carbamoyl)-1H-1,2,3-triazol-1-yl]butyl}-N-[(6-methylpyridin-3-yl)methyl]-1H-1,2,3-triazole-4-carboxamide], the EC50 in experiment [1] (A549, 72 h) is less than 100 nM. Besides, the IC50 in experiment [2] was less than 100 nM.
The compound `Cc1ccc(CNC(=O)c2cn(CCC(F)Cn3cc(C(=O)NCc4cc(OC(F)(F)F)ccc4F)nn3)nn2)cn1` (stereo not shown) [Example 370, 1-{3-fluoro-4-[4-({[2-fluoro-5-(trifluoromethoxy)phenyl]methyl}carbamoyl)-1H-1,2,3-triazol-1-yl]butyl}-N-[(6-methylpyridin-3-yl)methyl]-1H-1,2,3-triazole-4-carboxamide] yielded an EC50 in experiment [1] (A549, 72 h) of less than 100 nM. The IC50 in experiment [2] was less than 100 nM.
Compound `O=C(CN1CC(F)C1)Nc1cn(CC(F)CCn2cc(C(=O)NCc3cccc(OC(F)(F)F)c3)nn2)nn1` (stereo not shown) [Example 371, 1-(3-fluoro-4-{4-[2-(3-fluoroazetidin-1-yl)acetamido]-1H-1,2,3-triazol-1-yl}butyl)-N-{[3-(trifluoromethoxy)phenyl]methyl}-1H-1,2,3-triazole-4-carboxamide] had an EC50 in experiment [1] (A549, 72 h) of 100 to 500 nM. Moreover, in experiment [2], the IC50 is less than 100 nM.
Turning to `O=C(CN1CC(F)C1)Nc1cn(CC(F)CCn2cc(C(=O)NCc3cc(OC(F)(F)F)ccc3F)nn2)nn1` (stereo not shown) [Example 372, 1-(3-fluoro-4-(4-(2-(3-fluoroazetidin-1-yl)acetamido)-1H-1,2,3-triazol-1-yl)butyl)-N-(2-fluoro-5-(trifluoromethoxy)benzyl)-1H-1,2,3-triazole-4-carboxamide], in experiment [1], the EC50 lay within 100 to 500 nM. For the same compound, the IC50 in experiment [2] is less than 100 nM.
`O=C(NCc1ccccn1)c1cn(CCC(F)Cn2cc(C(=O)NCc3cc(OC(F)(F)F)ccc3F)nn2)nn1` (stereo not shown) [Example 373, 1-{3-fluoro-4-[4-({[2-fluoro-5-(trifluoromethoxy)phenyl]methyl}carbamoyl)-1H-1,2,3-triazol-1-yl]butyl}-N-(pyridin-2-ylmethyl)-1H-1,2,3-triazole-4-carboxamide] returned a 50% effective concentration (EC50) in experiment [1] (A549, 72 h) of less than 100 nM. Further, the IC50 in experiment [2] was less than 100 nM.
In experiment [1] (A549, 72 h), `O=C(Cc1cc(OC(F)(F)F)ccc1F)Nc1cn(CC(F)CCn2cc(C(=O)NCc3ccccn3)nn2)nn1` (stereo not shown) [Example 375, 1-[3-fluoro-4-(4-{2-[2-fluoro-5-(trifluoromethoxy)phenyl]acetamido}-1H-1,2,3-triazol-1-yl)butyl]-N-(pyridin-2-ylmethyl)-1H-1,2,3-triazole-4-carboxamide] returned an EC50 of less than 100 nM. For the same compound, in experiment [2], the IC50 was less than 100 nM.
For `Cc1ccc(CNC(=O)c2cn(CCC(F)Cn3cc(NC(=O)Cc4cc(OC(F)(F)F)ccc4F)nn3)nn2)cn1` (stereo not shown) [Example 376, 1-[3-fluoro-4-(4-{2-[2-fluoro-5-(trifluoromethoxy)phenyl]acetamido}-1H-1,2,3-triazol-1-yl)butyl]-N-[(6-methylpyridin-3-yl)methyl]-1H-1,2,3-triazole-4-carboxamide], the half-maximal effective concentration (EC50) in experiment [1] (A549, 72 h) is less than 100 nM. For the same compound, in experiment [2], the IC50 was less than 100 nM.
In the case of `O=C(Cc1cc(OC(F)(F)F)ccc1F)Nc1cn(CC(F)CCn2cc(C(=O)NCc3cc(OC(F)(F)F)ccc3F)nn2)nn1` (stereo not shown) [Example 377, 1[3-fluoro-4-(4-{2-[2-fluoro-5-(trifluoromethoxy)phenyl]acetamido}-1H-1,2,3-triazol-1-yl)butyl]-N-{[2-fluoro-5-(trifluoromethoxy)phenyl]methyl}-1H-1,2,3-triazole-4-carboxamide], the 50% effective concentration (EC50) in experiment [1] (A549, 72 h) is less than 100 nM. Further, in experiment [2], the IC50 is less than 100 nM.
As for `O=C(Cc1cc(OC(F)(F)F)ccc1F)Nc1cn(CC(F)CCn2cc(C(=O)NCc3ncccc3F)nn2)nn1` (stereo not shown) [Example 378, 1-[3-fluoro-4-(4-{2-[2-fluoro-5-(trifluoromethoxy)phenyl]acetamido}-1H-1,2,3-triazol-1-yl)butyl]-N-[(3-fluoropyridin-2-yl)methyl]-1H-1,2,3-triazole-4-carboxamide], in experiment [1] (A549, 72 h), the EC50 was less than 100 nM. For the same compound, in experiment [2], the half-maximal inhibitory concentration (IC50) is less than 100 nM.
In experiment [1] (A549, 72 h), `O=C(Cc1cc(OC(F)(F)F)ccc1F)Nc1cn(CC(F)CCn2cc(C(=O)NCc3cccc(OC(F)(F)F)c3)nn2)nn1` (stereo not shown) [Example 379, 1-[3-fluoro-4-(4-{2-[2-fluoro-5-(trifluoromethoxy)phenyl]acetamido}-1H-1,2,3-triazol-1-yl)butyl]-N-{[3-(trifluoromethoxy)phenyl]methyl}-1H-1,2,3-triazole-4-carboxamide] came in with an EC50 of less than 100 nM. Also, the IC50 in experiment [2] is less than 100 nM.
As to `O=C(Cc1cc(OC(F)(F)F)ccc1F)Nc1cn(CCCCn2cc(C(=O)NCc3cccc(OC(F)(F)F)c3)nn2)nn1` [Example 380, 1-[4-(4-{2-[2-fluoro-5-(trifluoromethoxy)phenyl]acetamido}-1H-1,2,3-triazol-1-yl)butyl]-N-{[3-(trifluoromethoxy)phenyl]methyl}-1H-1,2,3-triazole-4-carboxamide], the half-maximal effective concentration (EC50) in experiment [1] (A549, 72 h) was less than 100 nM. In addition, in experiment [2], the IC50 was less than 100 nM.
Turning to `O=C(Cc1cc(OC(F)(F)F)ccc1F)Nc1cn(CCCCn2cc(C(=O)NCc3cc(OC(F)(F)F)ccc3F)nn2)nn1` [Example 381, 1-[4-(4-{2-[2-fluoro-5-(trifluoromethoxy)phenyl]acetamido}-1H-1,2,3-triazol-1-yl)butyl]-N-{[2-fluoro-5-(trifluoromethoxy)phenyl]methyl}-1H-1,2,3-triazole-4-carboxamide], the EC50 in experiment [1] (A549, 72 h) is less than 100 nM. Further, in experiment [2], the IC50 was less than 100 nM.
For `O=C(Cc1cc(OC(F)(F)F)ccc1F)Nc1cn(CCCCn2cc(C(=O)NCc3ncccc3F)nn2)nn1` [Example 382, 1-[4-(4-{2-[2-fluoro-5-(trifluoromethoxy)phenyl]acetamido} 1H-1,2,3-triazol-1-yl)butyl]-N-[(3-fluoropyridin-2-yl)methyl]-1H-1,2,3-triazole-4-carboxamide], the EC50 in experiment [1] (A549, 72 h) was 100 to 500 nM. In addition, the 50% inhibitory concentration (IC50) in experiment [2] is less than 100 nM.
Regarding `Cc1ccc(CNC(=O)c2cn(CCCCn3cc(NC(=O)Cc4cc(OC(F)(F)F)ccc4F)nn3)nn2)cn1` [Example 383, 1-[4-(4-{2-[2-fluoro-5-(trifluoromethoxy)phenyl]acetamido}-1H-1,2,3-triazol-1-yl)butyl]-N-[(6-methylpyridin-3-yl)methyl]-1H-1,2,3-triazole-4-carboxamide], in experiment [1] (A549, 72 h), the EC50 is less than 100 nM. The IC50 in experiment [2] was less than 100 nM.
`O=C(Cc1cc(OC(F)(F)F)ccc1F)Nc1cn(CCCCn2cc(C(=O)NCc3cc(Cl)ccc3F)nn2)nn1` [Example 384, N-[(5-chloro-2-fluorophenyl)methyl]-1-[4-(4-{2-[2-fluoro-5-(trifluoromethoxy)phenyl]acetamido}-1H-1,2,3-triazol-1-yl)butyl]-1H-1,2,3-triazole-4-carboxamide]: the EC50 in experiment [1] (A549, 72 h) was less than 100 nM. The IC50 in experiment [2] was less than 100 nM.

These data come from patent publication US10344025B2, “GLS1 inhibitors for treating disease” (Board of Regents, The University of Texas System, priority 2014, dated 2019).
